Literature values as cited in patent publication US20100068203A1, “17-Oxymacbecin Derivatives and Their Use in the Treatment of Cancer and/or B-Cell Malignancies” (priority 2006, published 2010).
One block for each molecule: values may come before it.

Experiments:
Hsp90 = Hsp90 (Homo sapiens, UniProt P07900)
SKBr3 = conditions: compared with geldanamycin and 17-AAG
[1] = target: terminal deoxynucleotidyl transferase (Homo sapiens, UniProt P04053)
bacteria and fungi = conditions: in vitro

Sequence of terminal deoxynucleotidyl transferase (P04053 whole entry, species assumed): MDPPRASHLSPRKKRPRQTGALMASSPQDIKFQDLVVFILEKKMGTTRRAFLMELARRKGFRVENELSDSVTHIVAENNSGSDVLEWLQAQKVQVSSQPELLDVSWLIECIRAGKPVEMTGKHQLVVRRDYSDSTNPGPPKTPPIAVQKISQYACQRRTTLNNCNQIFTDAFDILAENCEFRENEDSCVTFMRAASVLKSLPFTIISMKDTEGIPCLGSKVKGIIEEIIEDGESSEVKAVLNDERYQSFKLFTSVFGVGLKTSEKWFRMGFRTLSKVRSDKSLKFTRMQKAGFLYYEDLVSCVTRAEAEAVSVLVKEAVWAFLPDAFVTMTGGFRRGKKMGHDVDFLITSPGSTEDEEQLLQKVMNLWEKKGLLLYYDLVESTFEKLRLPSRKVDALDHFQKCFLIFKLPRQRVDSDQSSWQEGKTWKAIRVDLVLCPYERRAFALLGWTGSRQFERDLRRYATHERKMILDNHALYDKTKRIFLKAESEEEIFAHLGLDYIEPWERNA

binding affinity to Hsp90, greater than 17-AAG (Hsp90; relative to 17-AAG): 8 fold
binding affinity to Hsp90, greater than geldanamycin (Hsp90; relative to geldanamycin): 4 fold
IC50 measurement using SKBr3 (SKBr3): not reflected in an improvement
SMILES: CO[C@H]1C[C@H](C)Cc2cc(O)cc(c2)NC(=O)/C=C/CC[C@H](OC)[C@@H](OC(N)=O)/C(C)=C/[C@H](C)[C@H]1O [KOSN1559]

SMILES: CO[C@H]1[C@@H](OC)C[C@H](C)[C@@H](OC)C2=CC(=O)C=C(NC(=O)/C(C)=C/C=C\[C@H](C)[C@@H](OC(N)=O)/C(C)=C/[C@@H]1C)C2=O [macbecin]
Reverse transcriptase activity inhibition (Reverse transcriptase): not inhibited
terminal deoxynucleotidyl transferase activity inhibition [1]: not inhibited

SMILES: COC1=C2C[C@@H](C)C[C@H](OC)[C@H](O)[C@@H](C)/C=C(\C)[C@H](OC(N)=O)[C@@H](OC)/C=C\C=C(/C)C(=O)NC(=CC1=O)C2=O [geldanamycin]
activity in vitro against protozoa (protozoa): strong activity
activity against bacteria and fungi (bacteria and fungi): weak activity
